In patent US9408891B2, “Methods of using gelsolin to treat or prevent bacterial sepsis” (priority 2003, dated 2016):
“Also recorded” adds a separate entry of the source.

What was measured:
human platelets = assay: Collagen-induced aggregation of gel-filtered platelets; type: cell-based; conditions: collagen 10 μg/ml
Experimental: To isolate human platelets, blood from healthy volunteers was collected in acid-citrate dextrose. Platelet-rich plasma obtained after centrifugation (15 minutes, 110×g) at room temperature, was supplemented with apyrase (0.5 U/ml) (Sigma-Aldrich) to degrade excess nucleotides. Platelets were sedimented by centrifugation (10 minutes, 1000×g), suspended in buffer A (139 mM NaCl, 2.8 mM KCl, 0.8 mM MgCl2, 0.8 mM KH2PO4, 8.9 mM NaHCO3, 10 mM HEPES, 5.6 mM glucose, 0.3% albumin, pH 7.35) and filtered on a 50 ml column of Sepharose 2B to obtain gel-filtered platelets (GFP).
Platelet aggregation was initiated by adding collagen (10 μg/ml) (Chrono-Log Corp., Havertown, Pa.). Platelet aggregation was monitored using a Chronolog Lumi-Aggregometer (Chrono-Log Corp.). Changes in light transmission were recorded for 10 minutes, using a PowerLab/200 instrument and MacLab Chart program Version 3.2. When required before activation, the platelet suspension was reacted with LPS, or LPS-preincubated with the SEQ ID No:1 peptide (QRLFQVKGRR).

[1] = target: T1, gelsolin activity in whole human serum (Homo sapiens, UniProt P06396); assay: Actin filament severing activity of whole human serum; type: biochemical; conditions: larger amounts needed than with pure gelsolin
T1 construct: from tissue; host or cells: whole human serum (2.5 µl)
Experimental: (§1) As shown, recombinant human gelsolin (rhGLS) (FIG. 4A) and blood serum (FIG. 4B) severing activity was measured in 0.4 μM pyrene-labeled F-actin samples (polymerized with 50% pyrene-labeled G-actin), after adding gelsolin (16 nM)/serum (2.5 μl), or their combination with one of the following: LPS (from different species), PIP2 (phosphatidyl-inositol-4,5-bisphosphate), LPA (lysophosphatidic acid), lipid A (the LPS derivative lacking polysaccharide) or PS (phosphatidylserine). The fluorescence intensity of F-pyrene actin was then monitored for 10 minutes, and the severing activity was calculated based on decreasing fluorescence. Severing activity was determined from a decrease in rate of fluorescence during depolymerization, and the depolymerization rate was calculated from the slope of the early decrease in fluorescence.

[2] = target: T2, Gc-globulin (vitamin D-binding protein) (Homo sapiens, UniProt P02774); assay: Actin-sequestering activity of Gc-globulin; type: biochemical; conditions: LPS at least up to 100 μM
T2 sequence (P02774 17-474): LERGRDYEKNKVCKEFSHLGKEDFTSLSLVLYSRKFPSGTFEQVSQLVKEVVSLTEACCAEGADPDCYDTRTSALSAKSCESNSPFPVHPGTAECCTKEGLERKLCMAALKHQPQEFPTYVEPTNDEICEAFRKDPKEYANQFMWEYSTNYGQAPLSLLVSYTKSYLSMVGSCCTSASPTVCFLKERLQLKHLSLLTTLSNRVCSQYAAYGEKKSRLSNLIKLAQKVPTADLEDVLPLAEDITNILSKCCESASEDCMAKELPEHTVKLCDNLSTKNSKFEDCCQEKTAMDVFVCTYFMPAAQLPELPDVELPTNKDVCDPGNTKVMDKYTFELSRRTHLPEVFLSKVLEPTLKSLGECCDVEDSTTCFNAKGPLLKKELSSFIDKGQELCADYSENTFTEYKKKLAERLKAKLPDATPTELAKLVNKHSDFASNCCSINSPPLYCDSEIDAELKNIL

[3] = target: T3, recombinant human gelsolin (rhGLS) (Homo sapiens, UniProt P06396); assay: Actin filament severing activity of purified gelsolin (pyrene F-actin depolymerization); type: biochemical
T3 construct: purchased Biogen IDEC, Inc., Cambridge, Mass; host or cells: E. coli
Experimental: To determine gelsolin's severing activity, rates of fluorescence decrease were evaluated during depolymerization. Monomeric G-actin was prepared from an acetone powder of rabbit skeletal muscle according to previously published methods (Spudich et al., J. Biol. Chem […]). The non-polymerizing solution contained 2 mM TRIS, 0.2 mM CaCl2, 0.5 mM ATP (adenosine triphosphate), 0.2 mM DTT (dithiothreitol) pH 7.4. Actin was polymerized by adding 150 mM KCl and 2 mM MgCl2 to the G-actin solutions and incubating for 1 hour at room temperature.
For F-actin severing assays, in general, a small volume (typically 5 μl) of the gelsolin composition is added to a similar volume of pyrene-labeled F-actin at a concentration adjusted to provide an actin:gelsolin ratio of approximately 10:1 (typically 1 μM gelsolin and 10 μM actin). This mixture is the diluted to 0.5 μM in a larger volume of F-actin buffer, and the filament severing efficiency is calculated from the initial slope of the fluorescence change. This reflects the rate of depolymerization that, in turn, is proportional to the number of cuts made by gelsolin. The LPS/gelsolin reaction can be done under any ionic condition, and the addition to F-actin requires the presence of […] Ca^2+ to activate the gelsolin. […] The actin nucleation reaction is similar except that in the latter case, the gelsolin/LPS mixture is added to a more dilute solution of G-actin (typically, 1 or 2 μM) in low ionic strength buffer followed immediately by addition of 150 mM KCI and 2 mM MgCl2 to initiate polymerization.
as §1

[4] = target: T3, recombinant human gelsolin (rhGLS); assay: Change of gelsolin OD at 280 nm after adding lipids; type: binding; conditions: OD 280 nm
Experimental: Therefore, to determine changes of gelsolin OD at 280 nm, different amounts of LPS, LPA and PS were added to recombinant human gelsolin (rhGLS) solutions and OD emission spectra were recorded using spectrophotometer Genesys 6 (Thermo-Spectronic, USA).

[5] = Neutron scattering of LPS with gelsolin peptide; type: physicochemical; conditions: preliminary neutron scattering, cylindrical structure
Source text: The molecular structure of LPS and its complexes with proteins can be measured at nm resolution by X-ray and neutron scattering, as well as by electron and atomic force microscopy.
At present, the calculated diameter (36 nm) is greater than that which has been previously reported for pure LPS micelles, and the difference in size may reflect another structural feature. In additional experiments with more variations in gelsolin/LPS or peptide, LPS ratios will reveal if there are significant changes in LPS particle structure when these peptides bind LPS.

T3 sequence (P06396 28-782): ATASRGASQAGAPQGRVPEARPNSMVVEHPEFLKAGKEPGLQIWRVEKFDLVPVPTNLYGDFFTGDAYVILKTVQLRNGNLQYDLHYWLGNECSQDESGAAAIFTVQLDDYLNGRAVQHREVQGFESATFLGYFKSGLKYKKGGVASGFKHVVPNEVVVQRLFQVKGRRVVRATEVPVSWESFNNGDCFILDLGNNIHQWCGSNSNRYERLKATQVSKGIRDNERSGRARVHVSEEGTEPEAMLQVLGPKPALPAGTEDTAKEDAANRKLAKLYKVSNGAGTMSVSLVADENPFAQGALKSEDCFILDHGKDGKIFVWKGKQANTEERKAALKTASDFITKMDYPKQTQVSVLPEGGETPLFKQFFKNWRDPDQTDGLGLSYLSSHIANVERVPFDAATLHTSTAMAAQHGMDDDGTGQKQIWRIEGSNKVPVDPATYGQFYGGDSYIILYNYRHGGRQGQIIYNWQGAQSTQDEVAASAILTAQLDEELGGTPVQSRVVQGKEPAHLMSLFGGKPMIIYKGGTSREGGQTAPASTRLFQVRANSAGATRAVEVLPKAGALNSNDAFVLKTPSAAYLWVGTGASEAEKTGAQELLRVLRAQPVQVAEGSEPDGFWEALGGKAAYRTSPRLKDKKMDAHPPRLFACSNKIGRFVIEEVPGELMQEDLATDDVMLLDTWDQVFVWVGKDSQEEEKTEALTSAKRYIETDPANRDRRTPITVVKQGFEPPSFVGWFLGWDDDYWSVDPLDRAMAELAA
T1 sequence (P06396 28-782): as above

With lipopolysaccharide [LPS] as the substance, how does the “effect of LPS alone on collagen-induced platelet aggregation and secretion” value (human platelets) read?
Its value is “strongly inhibited”.

What about the “inhibition of gelsolin activity in whole human serum” value [1] of the same substance?
Its value is “able to inhibit gelsolin activity; also recorded: inhibitory efficiency varies with the bacterial species”.

And the “effect on actin-sequestering activity of Gc-globulin” value [2]?
The value was “unaffected”.

And the “inhibition of severing activity of gelsolin” value ([3]; 0.02 μM LPS (100 ng/ml), 0.016 μM gelsolin)?
Its value is 50%.

And the “inhibition of severing capability of gelsolin” value ([3]; 0.1 μM LPS, 0.016 μM gelsolin)?
Its value is 90%.

What about the “inhibition of severing activity of purified human gelsolin” value ([3]; LPS concentration not stated at this place) of the same substance?
The value was 50%.

And the “inhibitory effect on severing activity of purified gelsolin” value ([3]; molar basis comparison)?
The value was “more potent inhibitor than either LPA or P1P2; also recorded: more potent inhibitor; also recorded: more potent inhibitor of gelsolin actin severing capability than either LPA or PIP2”.

And the “maximal decrease in UV absorbance of intact gelsolin” value [4]?
The value was roughly 35%.

What about the calculated diameter [5] of the same substance?
Its calculated diameter is 36 nm.
